This note sets out measurements from ChEMBL document CHEMBL1143740, “Conformationally locked thiosugars as potent alpha-mannosidase inhibitors: synthesis, biochemical and docking studies” (Bioorg Med Chem, 2007).

pKi: −log10 of the molar value.

This assay in a line: Inhibition of jack bean alpha-mannosidase. The arrangement: species or system Canavalia ensiformis.
As for `[O-][S+]1C[C@@H]2O[C@H]1[C@@H](O)[C@H](O)[C@@H]2O` (stereo partly drawn), the pKi is 6.41.
Regarding `OC1[C@H](O)C2CSC(O2)[C@H]1O` (single isomer, unassigned) [THIOLEVOMANNOSAN], the pKi was 5.86.
In turn, `O=S1(=O)C[C@@H]2O[C@H]1[C@@H](O)[C@H](O)[C@@H]2O` had a pKi of 6.46.

The pKi is −log10 of the Ki, conventionally taken in molar units.
